Results from patent publication US20240217951A1, “PCSK9 INHIBITORS AND METHODS OF USE THEREOF” (AstraZeneca AB, priority 2022, published 2024).

Columns and labels:
[1] = target: T1, potassium ion channel hERG (human Ether-á-go-go-Related Gene) (Homo sapiens, UniProt Q12809); experiment: Assay 5 - hERG assay (SyncroPatch 384PE patch clamp, CHO cells); assay type: cell-based; conditions: geometric mean; CHO cells over-expressing hERG; read-out: Assay 5 (hERG Hu CHO IF EPh CR-Syncro) GMean IC50
T1 construct: expressed in transfected cells; host or cells: Chinese hamster ovary K1 (CHO)
Outline: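 Automated high-throughput patch clamp on CHO-K1 cells overexpressing hERG at room temperature, KF/KCl internal with escin, NMDG-containing external at pH 7.4. Six-point cumulative compound addition, 0.33% DMSO final; wells kept only with seal >30 MΩ, Z′ >0.4 and current >0.2 nA.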

[2] = target: GSK3β (Glycogen synthase kinase-3 beta) (Homo sapiens, UniProt P49841); experiment: Assay 6 - GSK3β assay (ThermoFisher Z-Lyte); assay type: biochemical; conditions: geometric mean; ATP Conc: 10 μM; read-out: Assay 6 (GSK3β FRET-Z-Lyte CR) GMean IC50 (μM) ATP Conc: 10
Outline: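 Z-Lyte fluorescence kinase assay with 0.22-0.92 ng GSK3β and 2 μM Ser/Thr 09 peptide in 50 mM HEPES pH 7.5, 10 mM MgCl2, 1 mM EGTA, 0.01% BRIJ-35. Kinase reaction 60 min at room temperature, then 60 min development. 10-point 3-fold titration from 10 μM in 1% DMSO, fitted to a sigmoidal dose-response curve.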

[3] = target: T2, PCSK9 (Homo sapiens, UniProt Q8NBP7, G670E/V474I); experiment: Assay 3 - PCSK9 LDL-C uptake assay in HepG2 cells; assay type: cell-based; set-up: TEV cleavage site (C); His6 (C); host or cells: added to HepG2 cells (ATCC #HB-8065); conditions: 125 nM PCSK9, pHrodo Red-LDL, read-out: Assay 3 LDL uptake potency
Source text: Assay 3—PCSK9 LDL-C Uptake Assay
This assay measures for PCSK9 antagonist activity based on a test compound's capacity to restore LDL-C-uptake in HepG2 cells. The assay is based on exogenous PCSK9 and LDL-C complexed with a pH-sensitive dye. Outside the cells, at neutral pH, the pHrodo Red-LDL is dimly fluorescent but upon LDLR mediated endocytosis it fluoresces brightly. PCSK9 traffics the LDLR to intracellular degradation and reduces uptake of LDL-C. Inhibition of PCSK9 reduces LDLR degradation and the increased LDL-C uptake is quantified by fluorescence microscopy.
Preparation of Assay Reagents
Cell medium: MEM supplemented with 10% FBS, 1×NEAA and Sodium Pyruvate Assay medium: OptiMem supplemented with penicillin/streptomycin
Cells: HepG2 (ATCC #HB-8065)
Step by Step Protocol for Running the Assay:
• 1. Cryopreserved HepG2 cells were thawed in assay medium and centrifuged for 5 min at 250 g. Supernatant was discarded and the cell pellet resuspended in cell medium and counted with a Nucleocounter. Cells were again centrifuged 5 min at 250 g and the pellet was resuspended to 500000 cells/mL in assay medium. • 2. 20 μL of above cell mix was dispensed into black pclear TC treated 384 well plates with Multidrop Combi and left at room temperature for 20 minutes. • 3. Plates were incubated at 37° C., 5% CO2 for 24 h
• 1. Test compounds were prepared in concentration response in DMSO with a half-log dilution factor in DMSO in Echo 384 LDV plates starting at 10 mM. • 2. 30 nL of above test compounds were dispensed with Echo 655 to cells for a top concentration of 10 μM • 3. 10 μL PCSK9 in assay medium was dispensed to cells with Multidrop Combi for 125 nM final concentration in the wells. • 4. Plates were incubated at 37° C., 5% CO2 for 24 h
• 1. 10 μL pHrodo Red-LDL in assay medium was dispensed to cells with Multidrop Combi for 6 μg/mL • 2. Plates were incubated at 37° C., 5% CO2 and imaged with the Incucyte S3 after 4 h and 24 h
Image data was processed using Incucyte 2021, a software to identify cells and red fluorescent intensity. Screener was used to further process data. Data was normalized as % effect of the signal between median values of the on-plate controls of DMSO and 100 nM Evolocumab according to the formula % effect=−100*(x−DMSO)/(Evolocumab−DMSO) where x equals the measured signal. Concentration response data of the normalized values were fitted using a four-parameter logistic fit.

[4] = target: T2, PCSK9; experiment: biochemical

GSK3β (Glycogen synthase kinase-3 beta), sequence (P49841 whole entry): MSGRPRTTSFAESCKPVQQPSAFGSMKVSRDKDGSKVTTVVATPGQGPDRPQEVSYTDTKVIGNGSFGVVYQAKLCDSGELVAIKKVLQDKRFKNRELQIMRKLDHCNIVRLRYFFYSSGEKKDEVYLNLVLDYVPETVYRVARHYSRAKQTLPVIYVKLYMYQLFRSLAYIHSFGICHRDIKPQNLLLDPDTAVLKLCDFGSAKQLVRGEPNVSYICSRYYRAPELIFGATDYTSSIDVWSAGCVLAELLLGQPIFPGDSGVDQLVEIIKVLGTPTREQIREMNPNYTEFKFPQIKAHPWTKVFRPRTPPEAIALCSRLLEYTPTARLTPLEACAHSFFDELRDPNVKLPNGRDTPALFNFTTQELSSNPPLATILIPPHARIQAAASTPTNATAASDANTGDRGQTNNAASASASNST
T1 sequence (Q12809 whole entry): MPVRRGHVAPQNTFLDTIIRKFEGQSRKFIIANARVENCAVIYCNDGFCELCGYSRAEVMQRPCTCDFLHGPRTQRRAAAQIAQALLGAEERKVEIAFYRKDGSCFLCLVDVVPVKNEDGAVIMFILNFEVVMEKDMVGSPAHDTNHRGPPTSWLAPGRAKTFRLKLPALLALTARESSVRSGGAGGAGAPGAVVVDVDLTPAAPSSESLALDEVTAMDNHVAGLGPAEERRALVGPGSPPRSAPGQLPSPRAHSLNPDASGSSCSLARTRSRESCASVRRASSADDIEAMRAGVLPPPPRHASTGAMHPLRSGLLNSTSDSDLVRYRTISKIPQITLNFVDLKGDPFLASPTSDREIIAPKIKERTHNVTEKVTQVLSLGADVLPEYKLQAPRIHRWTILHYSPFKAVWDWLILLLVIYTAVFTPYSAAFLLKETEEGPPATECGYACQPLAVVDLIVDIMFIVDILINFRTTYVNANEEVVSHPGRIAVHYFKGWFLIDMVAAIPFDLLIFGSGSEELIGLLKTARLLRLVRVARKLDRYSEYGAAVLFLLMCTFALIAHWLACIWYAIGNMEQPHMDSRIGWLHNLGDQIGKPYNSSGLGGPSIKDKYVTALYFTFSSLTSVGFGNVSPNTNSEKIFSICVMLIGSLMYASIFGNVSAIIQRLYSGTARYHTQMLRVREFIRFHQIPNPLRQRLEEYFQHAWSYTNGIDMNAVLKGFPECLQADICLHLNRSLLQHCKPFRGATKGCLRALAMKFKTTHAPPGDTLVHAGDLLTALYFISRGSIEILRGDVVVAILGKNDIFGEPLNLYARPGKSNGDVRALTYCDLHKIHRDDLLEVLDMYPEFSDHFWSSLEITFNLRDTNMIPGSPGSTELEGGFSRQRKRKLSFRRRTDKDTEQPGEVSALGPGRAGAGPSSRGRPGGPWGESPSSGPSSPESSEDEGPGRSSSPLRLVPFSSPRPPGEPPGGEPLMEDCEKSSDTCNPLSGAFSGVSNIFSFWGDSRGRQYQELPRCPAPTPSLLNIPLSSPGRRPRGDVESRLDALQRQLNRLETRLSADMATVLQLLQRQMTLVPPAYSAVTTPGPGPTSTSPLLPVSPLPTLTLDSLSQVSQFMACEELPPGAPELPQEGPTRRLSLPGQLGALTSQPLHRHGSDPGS
T2 sequence (Q8NBP7 with tags, fused parts or gaps V474I/G670E): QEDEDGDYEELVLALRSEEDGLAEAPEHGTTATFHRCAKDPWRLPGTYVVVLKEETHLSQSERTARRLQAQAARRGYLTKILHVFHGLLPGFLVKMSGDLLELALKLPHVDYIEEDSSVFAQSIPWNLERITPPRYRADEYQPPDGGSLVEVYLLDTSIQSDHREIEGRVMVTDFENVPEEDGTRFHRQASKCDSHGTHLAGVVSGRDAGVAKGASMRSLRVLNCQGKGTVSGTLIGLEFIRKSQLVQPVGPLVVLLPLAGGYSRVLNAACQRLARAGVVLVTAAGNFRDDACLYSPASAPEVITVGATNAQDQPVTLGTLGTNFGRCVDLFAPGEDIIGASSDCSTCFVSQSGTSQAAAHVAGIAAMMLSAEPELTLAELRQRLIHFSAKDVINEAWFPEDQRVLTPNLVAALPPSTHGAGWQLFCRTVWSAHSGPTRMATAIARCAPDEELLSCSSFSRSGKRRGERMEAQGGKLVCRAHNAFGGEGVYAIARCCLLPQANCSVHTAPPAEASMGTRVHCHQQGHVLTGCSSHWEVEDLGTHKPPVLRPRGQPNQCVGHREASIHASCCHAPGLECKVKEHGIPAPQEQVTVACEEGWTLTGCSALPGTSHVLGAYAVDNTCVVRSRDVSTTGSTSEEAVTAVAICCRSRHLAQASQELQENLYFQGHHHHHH

Row | Compound | IC50 [1] | IC50 [2] | EC50 [3] | IC50 [4]
1 | O=c1ccc2cccnc2n1-c1ccc(N[C@H]2CC[C@H](Nc3cnc(Cl)cn3)C2)nc1 [Example 34, 1-(6-(((1S,3S)-3-((5-Chloropyrazin-2-yl)amino)cyclopentyl)amino)pyridin-3-yl)-1,8-naphthyridin-2 (1H)-one] | 15400 nM | > 10 µM | 100 nM | 5.1 nM
2 | Cc1cnc(N[C@H]2CC[C@H](Nc3ccc(-n4c(=O)ccc5ccccc54)cn3)C2)cn1 [Example 38, 1-(6-(((1S,3S)-3-((5-Methylpyrazin-2-yl)amino)cyclopentyl)amino)pyridin-3-yl)quinolin-2(1H)-one] | 25100 nM | > 10 µM | 100 nM | 2.2 nM
3 | Cc1cnc(N[C@H]2CC[C@H](Nc3ccc(-n4cc(Cl)ccc4=O)cn3)C2)cn1 [Example 43, 5-Chloro-6′-(((1S,3S)-3-((5-methylpyrazin-2-yl)amino)cyclopentyl)amino)-2H-[1,3′-bipyridin]-2-one] | > 40000 nM | > 10 µM | 700 nM | 22 nM
4 | Cc1cccn(-c2ccc(N[C@H]3CC[C@H](Nc4cnc(OC(F)F)cn4)C3)nc2)c1=O [Example 84, 6′-(((1S,3S)-3-((5-(Difluoromethoxy)pyrazin-2-yl)amino)cyclopentyl)amino)-3-methyl-2H-[1,3′-bipyridin]-2-one] | 6900 nM | > 10 µM | 700 nM | 11 nM
5 | O=c1c(Cl)cccn1-c1ccc(N[C@H]2CC[C@H](Nc3cnc(OC(F)F)cn3)C2)nc1 [Example 85, 3-Chloro-6′-(((1S,3S)-3-((5-(difluoromethoxy)pyrazin-2-yl)amino)cyclopentyl)amino)-2H-[1,3′-bipyridin]-2-one] | 5600 nM | > 10 µM | 200 nM | 4.3 nM
6 | O=c1ccc2cccnc2n1-c1ccc(N[C@H]2CC[C@H](Nc3cnc(OC(F)F)cn3)C2)nc1 [Example 87, 1-(6-(((1S,3S)-3-((5-(Difluoromethoxy)pyrazin-2-yl)amino)cyclopentyl)amino)pyridin-3-yl)-1,8-naphthyridin-2 (1H)-one] | 18100 nM | > 10 µM | 100 nM | 9.2 nM
7 | O=c1ccc2ccccc2n1-c1ccc(N[C@H]2CC[C@H](Nc3cnc(OC(F)F)cn3)C2)nc1 [Example 88, 1-(6-(((1S,3S)-3-((5-(Difluoromethoxy)pyrazin-2-yl)amino)cyclopentyl)amino)pyridin-3-yl)quinolin-2 (1H)-one] | 4500 nM | > 10 µM | 200 nM | 4.5 nM
8 | Cn1c(=O)n(-c2ccc(N[C@H]3CC[C@H](Nc4cnc(OC(F)F)cn4)C3)nc2)c2ncccc21 [Example 96, 3-(6-(((1S,3S)-3-((5-(Difluoromethoxy)pyrazin-2-yl)amino)cyclopentyl)amino)pyridin-3-yl)-1-methyl-1,3-dihydro-2H-imidazo[4,5-b]pyridin-2-one] | 12200 nM | > 10 µM | 700 nM | 7.3 nM
9 | Cn1c(=O)n(-c2ccc(N[C@H]3CC[C@H](Nc4cnc(Cl)cn4)C3)nc2)c2ncccc21 [Example 98, 3-(6-(((1S,3S)-3-((5-Chloropyrazin-2-yl)amino)cyclopentyl)amino)pyridin-3-yl)-1-methyl-1,3-dihydro-2H-imidazo[4,5-b]pyridin-2-one] | 10800 nM | > 10 µM | 800 nM | 4.2 nM
10 | N#Cc1cccn(-c2ccc(N[C@H]3CC[C@H](Nc4cnc(Cl)cn4)C3)nc2)c1=O [Example 101, 6′-(((1S,3S)-3-((5-Chloropyrazin-2-yl)amino)cyclopentyl)amino)-2-oxo-2H-[1,3′-bipyridine]-3-carbonitrile] | 19400 nM | > 10 µM | 600 nM | 5.5 nM
11 | N#Cc1cccn(-c2ccc(N[C@H]3CC[C@H](Nc4cnc(C5CC5)cn4)C3)nc2)c1=O [Example 104, 6′-(((1S,3S)-3-((5-Cyclopropylpyrazin-2-yl)amino)cyclopentyl)amino)-2-oxo-2H-[1,3′-bipyridine]-3-carbonitrile] | 24200 nM | > 10 µM | 500 nM | 5.8 nM
12 | Cn1c(=O)n(-c2ccc(N[C@H]3CC[C@H](Nc4cnc(C5CC5)cn4)C3)nc2)c2ncccc21 [Example 105, 3-(6-(((1S,3S)-3-((5-Cyclopropylpyrazin-2-yl)amino)cyclopentyl)amino)pyridin-3-yl)-1-methyl-1,3-dihydro-2H-imidazo[4,5-b]pyridin-2-one] | 20400 nM | > 10 µM | 800 nM | 6.4 nM
13 | O=c1c(Cl)cccn1-c1ccc(N[C@H]2CC[C@H](Nc3cnc(C4CC4)cn3)C2)nc1 [Example 108, 3-Chloro-6′-(((1S,3S)-3-((5-Cyclopropylpyrazin-2-yl)amino)cyclopentyl)amino)-2H-[1,3′-bipyridin]-2-one] | 12700 nM | > 10 µM | 400 nM | 3.4 nM
14 | Cc1cnc(N[C@H]2CC[C@H](Nc3ccc(-n4cccc(C(F)(F)F)c4=O)cn3)C2)cn1 [Example 147, 6′-(((1S,3S)-3-((5-Methylpyrazin-2-yl)amino)cyclopentyl)amino)-3-(trifluoromethyl)-2H-[1,3′-bipyridin]-2-one] | 16600 nM | > 10 µM | 100 nM | 5.2 nM
15 | Cc1cnc(N[C@H]2CC[C@H](Nc3ccc(-n4cccc(OC(F)(F)F)c4=O)cn3)C2)cn1 [Example 148, 6′-(((1S,3S)-3-((5-Methylpyrazin-2-yl)amino)cyclopentyl)amino)-3-(trifluoromethoxy)-2H-[1,3′-bipyridin]-2-one] | > 40100 nM | > 10 µM | 200 nM | 8 nM
16 | Cc1ncc(N[C@H]2CC[C@H](Nc3ccc(-n4cc(-c5nnn[nH]5)ccc4=O)cn3)C2)nc1C [Example 176, 6′-(((1S,3S)-3-((5,6-Dimethylpyrazin-2-yl)amino)cyclopentyl)amino)-5-(1H-tetrazol-5-yl)-2H-[1,3′-bipyridin]-2-one] | > 40100 nM | > 10 µM | 100 nM | 12 nM
17 | Cc1cnc(N[C@H]2CC[C@H](Nc3ccc(-n4cc(-c5nnn[nH]5)ccc4=O)cn3)C2)cn1 [Example 177, 6′-(((1S,3S)-3-((5-Methylpyrazin-2-yl)amino)cyclopentyl)amino)-5-(1H-tetrazol-5-yl)-2H-[1,3′-bipyridin]-2-one] | > 40100 nM | > 10 µM | 200 nM | 5.4 nM
18 | O=c1ccc(-c2nnn[nH]2)cn1-c1ccc(N[C@H]2CC[C@H](Nc3cnc(OC(F)F)cn3)C2)nc1 [Example 178, 6′-(((1S,3S)-3-((5-(Difluoromethoxy)pyrazin-2-yl)amino)cyclopentyl)amino)-5-(1H-tetrazol-5-yl)-2H-[1,3′-bipyridin]-2-one] | > 40100 nM | > 10 µM | 100 nM | 10 nM
19 | Cc1cnc(N[C@H]2CC[C@H](Nc3ccc(-n4cccc(-c5cn[nH]c5)c4=O)cn3)C2)cn1 [Example 204, 6′-(((1S,3S)-3-((5-Methylpyrazin-2-yl)amino)cyclopentyl)amino)-3-(1H-pyrazol-4-yl)-2H-[1,3′-bipyridin]-2-one] | > 40100 nM | > 10 µM | 400 nM | 3.5 nM
